Earlier results, collected in patent publication US20130224794A1, “MINERAL-PEPTIDE CHELATES” (NUGEN BIOSCIENCE (TAIWAN) CO., LTD., priority 2009, published 2013).
Read-outs that look alike come from different tables or passages of the source.

Conditions: for absorption: qualitative
[1] = general soybean isoflavones, glucoside vs aglycone form

bioavailability [1] [%] | absorption [1] | Structure (SMILES) | bioavailability (in vivo) [%]
90 | fast | O=c1c(-c2ccc(O)cc2)coc2cc(O)cc(O)c12 [genistein] | –
20 | slow | O=c1c(-c2ccc(O)cc2)coc2cc(O[C@@H]3O[C@H](CO)[C@@H](O)[C@H](O)[C@H]3O)cc(O)c12 [genistin] | –
– | – | O=c1c(-c2ccc(O)cc2)coc2cc(O)ccc12 [daidzein] | 90

Structure (SMILES) | bioavailability [1] [%] | absorption [1] | bioavailability (in vivo) [%]
O=c1c(-c2ccc(O)cc2)coc2cc(O[C@@H]3O[C@H](CO)[C@@H](O)[C@H](O)[C@H]3O)ccc12 [daidzin] | 20 | slow | –
